± gives the expanded uncertainty stated by the source.
Conditions: 101.33 kPa, Liquid, Vibrating tube method

SMILES	mass density (293.15 K) [kg/m3]	mass density (298.15 K) [kg/m3]	mass density (303.15 K) [kg/m3]	mass density (308.15 K) [kg/m3]	mass density (313.15 K) [kg/m3]	mass density (318.15 K) [kg/m3]	mass density (323.15 K) [kg/m3]	mass density (328.15 K) [kg/m3]	mass density (333.15 K) [kg/m3]
CCOC(C)=O [ethyl acetate]	900.48 ± 1	894.36 ± 1	888.19 ± 1	881.98 ± 1	875.73 ± 1				
CCCCOC(C)=O [butyl ethanoate]	880.61 ± 1	875.45 ± 1	870.27 ± 1	865.08 ± 1	859.86 ± 1				
CC(=O)CO [acetol]	1080.13 ± 6.3	1074.92 ± 6.3	1069.67 ± 6.2	1064.31 ± 6.1	1058.71 ± 6.1	1053.13 ± 6	1047.55 ± 5.9	1042.01 ± 5.9	1036.62 ± 5.8
CCCOC(C)=O [propyl ethanoate]	887.8 ± 1	882.19 ± 1	876.56 ± 1	870.9 ± 1	865.21 ± 1				

Source: the NIST ThermoML archive (doi:10.1016/j.fluid.2018.01.026)
